From US12441689B2 (EpiVario, Inc., priority 2019, dated 2025)

Each compound was assayed against human ACSS2 protein (Homo sapiens (Human), UniProt Q9NR19) (assay: ACSS2 Cell-Free Activity Assay (Cell-Free IC50)). Details: 10 nM human ACSS2 protein, 90 minutes at 37 C, pyrophosphatase-coupled, Biomol Green absorbance at 620 nm; read-out: ACSS2 Biochemical IC50.
Text: ACSS2 Cell-Free Activity Assay (Cell-Free IC50)

human ACSS2 protein, sequence (Q9NR19 whole entry): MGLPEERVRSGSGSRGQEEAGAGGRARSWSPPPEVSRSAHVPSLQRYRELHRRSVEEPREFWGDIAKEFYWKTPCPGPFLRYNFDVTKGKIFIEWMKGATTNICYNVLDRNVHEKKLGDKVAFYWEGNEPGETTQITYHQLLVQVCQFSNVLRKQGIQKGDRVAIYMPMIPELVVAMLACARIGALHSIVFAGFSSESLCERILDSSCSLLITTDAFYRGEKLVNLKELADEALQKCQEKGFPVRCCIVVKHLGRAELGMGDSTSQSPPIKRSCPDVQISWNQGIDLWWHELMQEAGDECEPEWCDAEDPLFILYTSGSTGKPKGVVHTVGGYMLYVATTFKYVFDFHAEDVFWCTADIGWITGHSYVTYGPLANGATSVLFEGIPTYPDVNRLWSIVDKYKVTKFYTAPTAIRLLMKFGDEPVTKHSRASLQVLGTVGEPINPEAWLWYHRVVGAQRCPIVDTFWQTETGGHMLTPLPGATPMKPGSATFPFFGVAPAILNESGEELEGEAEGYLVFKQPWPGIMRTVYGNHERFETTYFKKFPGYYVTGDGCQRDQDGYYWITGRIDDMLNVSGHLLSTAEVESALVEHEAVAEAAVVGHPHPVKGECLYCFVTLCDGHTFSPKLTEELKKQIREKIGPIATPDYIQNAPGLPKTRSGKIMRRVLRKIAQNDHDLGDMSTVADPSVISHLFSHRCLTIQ

Compound | IC50
CCC(F)(F)c1cccc(NC(=O)c2c(C)nn(-c3ccc(OC)cc3)c2C(C)=O)c1 [Compound 230, 5-acetyl-N-(3-(1,1-difluoropropyl)phenyl)-1-(4-methoxyphenyl)-3-methyl-1H-pyrazole-4-carboxamide] | > 100 nM
CCc1c(C(=O)Nc2cccc(C(C)(F)F)c2)c(C)nn1-c1ccc(OC(F)F)c(-c2ccccn2)c1 [Compound 148, N-[3-(1,1-difluoroethyl)phenyl]-1-[4-(difluoromethoxy)-3-(2-pyridyl)phenyl]-5-ethyl-3-methyl-pyrazole-4-carboxamide] | > 100 nM
Cc1oc(-c2ccc(OC(F)F)cc2)nc1C(=O)Nc1cccc(C(C)(F)F)c1 [Compound 113, N-(3-(1,1-difluoroethyl)phenyl)-2-(4-(difluoromethoxy)phenyl)-5-methyloxazole-4-carboxamide] | > 100 nM
CCC(F)(F)c1cccc(NC(=O)c2cnc(-c3ccc(OC(F)F)c(-c4ccccn4)c3)nc2C)c1 [Compound 119, 2-(4-(difluoromethoxy)-3-(pyridin-2-yl)phenyl)-N-(3-(1,1-difluoropropyl)phenyl)-4-methylpyrimidine-5-carboxamide] | > 100 nM
CCC(F)(F)c1cccc(NC(=O)c2nc(-c3ccc(OC)cc3)oc2C)c1 [Compound 116, N-(3-(1,1-difluoropropyl)phenyl)-2-(4-methoxyphenyl)-5-methyloxazole-4-carboxamide] | > 100 nM

Now from value to compound:

IC50 | Compound
1 to 100 nM | COc1ccc(N2N=C(C)C(Cl)(C(=O)Nc3cccc(C(C)(F)F)c3)C2=O)cc1 (stereo not shown) [Compound 202, 4-chloro-N-(3-(1,1-difluoroethyl)phenyl)-1-(4-methoxyphenyl)-3-methyl-5-oxo-4,5-dihydro-1H-pyrazole-4-carboxamide]
> 100 nM | CC1=NN(c2ccc(OC(F)F)cc2)C(=O)C1(C)C(=O)Nc1cc(C)cc(Cl)c1 (stereo not shown) [Compound 157, N-(3-chloro-5-methyl-phenyl)-1-[4-(difluoromethoxy)phenyl]-3,4-dimethyl-5-oxo-pyrazole-4-carboxamide]
< 1 nM | COc1ccc(N2N=C(C)C(F)(C(=O)Nc3cccc(C(C)(F)F)c3)C2=O)cc1 (stereo not shown) [Compound 209, N-(3-(1,1-difluoroethyl)phenyl)-4-fluoro-1-(4-methoxyphenyl)-3-methyl-5-oxo-4,5-dihydro-1H-pyrazole-4-carboxamide]
> 100 nM | CC(=O)c1c(C(=O)Nc2cccc(C(C)(F)F)c2)c(C)nn1-c1ccc(OC(F)F)cc1 [Compound 193, 5-acetyl-N-(3-(1,1-difluoroethyl)phenyl)-1-(4-(difluoromethoxy)phenyl)-3-methyl-1H-pyrazole-4-carboxamide]
1 to 100 nM | CCC(F)(F)c1cccc(NC(=O)c2oc(-c3ccc(OC)cc3)nc2C)c1 [Compound 136, N-(3-(1,1-difluoropropyl)phenyl)-2-(4-methoxyphenyl)-4-methyloxazole-5-carboxamide]
